Measurements published in patent US20070082327A1, “Cellular phenotype” (Cytokinetics, Inc. A Delaware Corporation, priority 2005, published 2007).

How the values were obtained:
SKOV3 cells = assay: time-lapse tracking of cell fate, GFP-Histone 2B SKOV3 cells; type: cell-based; conditions: SKOV3, 20 random cells tracked, 0.5 μM Taxol, FIG. 3a
Experimental: FIG. 3a is a bar graph showing the percentages of 20 random cells tracked to assess their fate: complete mitosis, death from mitosis, decondensation (uncertain fate) and death from decondensation.
The data used to construct the chart was obtained by time-lapse movies of cells marked with GFP-Histone 2B. Movies were collected on cell populations treated with two different mp2 stimulus compounds at various concentrations, as well as on DMSO-treated (control) cells, cells treated with 0.5 μM Taxol, and cells treated with compounds that produce a rice phenotype. […] It is believed that most of these cells would eventually die.

60 cancer cell lines = conditions: NCI 60 cell line data; cited from earlier work

CC(=O)O[C@H]1C(=O)[C@@]2(C)[C@H]([C@H](OC(=O)c3ccccc3)[C@]3(O)C[C@H](OC(=O)[C@H](O)[C@@H](NC(=O)c4ccccc4)c4ccccc4)C(C)=C1C3(C)C)[C@]1(OC(C)=O)CO[C@@H]1C[C@@H]2O [Taxol, paclitaxel]
cell fate after treatment (SKOV3 cells): the highest number of cells die directly from mitosis
potency differences between cell types (60 cancer cell lines): over 3 orders of magnitude
